Measurements taken from patent US20250163119A1, “COMPOUNDS FOR THE TREATMENT OF DIABETES OR OBESITY” (Eli Lilly and Company, priority 2023, published 2025).
Several values for one entry are separate records, joined by “and”; a condition that tells them apart may be missing. Equal values may be shown once. *1 amine or outer side, *2 acyl side, *3 side chain or, on linkers, in order; H or OH if unused. [ ]: non-standard residue; d: D form. The star is where a group is joined. C20 diacid = O=C(O)CCCCCCCCCCCCCCCCCCC(=O)*; γGlu = O=C(O)[C@H](CCC(=O)[*:2])N[*:1]; εLys = N[C@@H](CCCCN[*:1])C(=O)[*:2]; αMeL = CC(C)C[C@](C)(N)C(=O)O; AEEA = NCCOCCOCC(=O)O; Aib = CC(C)(N)C(=O)O

Legend:
[1] = Pharmacokinetics in Yucatan mini-pigs, single subcutaneous or intravenous dose; format: in vivo; conditions: for Tmax: read-out: Tmax
Summary of the method: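 Male mini-pigs received one SC or IV dose (19 or 99 nmol/kg) in 40 mM Tris-HCl 5% D-mannitol, pH 8. Blood sampled 0.083 (IV only) to 504 h postdose. Plasma levels measured by LC/MS after extraction and SPE, Orbitrap detection.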

[2] = Pharmacokinetics in Sprague Dawley rats, single subcutaneous or intravenous dose (incl. 10, 30, 100 nmol/kg dose response); format: in vivo
[3] = male Yucatan pigs, single subcutaneous dose 19 nmol/kg, individual animal
[4] = male, Yucatan mini-pig, minipig, plasma, iv, 19 nmol/kg, single intravenous dose 19 nmol/kg, individual animal
[5] = male, Yucatan mini-pig, minipig, plasma, iv, 19 nmol/kg, single intravenous dose 19 nmol/kg, mean
[6] = male, Yucatan mini-pig, minipig, plasma, sc, 19 nmol/kg, single subcutaneous dose 19 nmol/kg, Mean
[7] = male, Yucatan mini-pig, minipig, plasma, sc, 19 nmol/kg, single subcutaneous dose 19 nmol/kg, individual animal
[8] = single intravenous dose 19 nmol/kg, male Yucatan pigs, individual animal
[9] = dose response, single subcutaneous dose 10 nmol/kg, male Sprague Dawley rats, individual animal
[10] = dose response, single subcutaneous dose 30 nmol/kg, male Sprague Dawley rats, individual animal
[11] = dose response, single subcutaneous dose 100 nmol/kg, male Sprague Dawley rats, individual animal
[12] = male Sprague Dawley rats, single intravenous dose 190 nmol/kg, individual animal
[13] = male, Sprague Dawley, rat, plasma, iv, 190 nmol/kg, single intravenous dose 190 nmol/kg, Mean
[14] = male, Sprague Dawley, rat, plasma, iv, 190 nmol/kg, single intravenous dose 190 nmol/kg, individual animal
[15] = single subcutaneous dose 190 nmol/kg, male Sprague Dawley rats, individual animal

{C20 diacid-εLys-AEEA-γGlu}-GSPSIVTS[αMeL]DVPT[Aib][αMeL]LQKILEQERAEKARQQATEAAEILAQV-NH2 [SEQ ID NO: 25]
AUC0-inf ([1]; Yucatan mini-pig, minipig, plasma, sc, male Yucatan pigs, single subcutaneous dose 19 nmol/kg, Mean, read-out: AUC0-inf): 27.6 µM·h | Cmax ([1]; Yucatan mini-pig, minipig, plasma, sc, male Yucatan pigs, single subcutaneous dose 19 nmol/kg, Mean, read-out: Cmax): 170 nM | AUC0-inf [1, 3]: 28.3 µM·h and 26.8 µM·h | CL/F [1, 3]: 0.012 mL/min/kg | Cmax [1, 3]: 159 nM and 181 nM | T1/2 [1, 3]: 70.4 h | clearance [1, 4]: 0.00755 mL/min/kg | half-life [1, 4]: 106 h | clearance [1, 5]: 0.00803 mL/min/kg | half-life [1, 5]: 96.4 h | half-life [1, 6]: 75.6 h | CL/F ([1]; male, Yucatan mini-pig, minipig, plasma, sc, 19 nmol/kg, single subcutaneous dose 19 nmol/kg, Mean, read-out: CL/F (converted)): 0.0116 mL/min/kg | Tmax [1, 6]: 24 h | half-life [1, 7]: 80.8 h | CL/F ([1]; male, Yucatan mini-pig, minipig, plasma, sc, 19 nmol/kg, single subcutaneous dose 19 nmol/kg, individual animal, read-out: CL/F (converted)): 0.0114 mL/min/kg | Tmax [1, 7]: 24 h | AUC0-inf ([1]; minipig, plasma, single intravenous dose 19 nmol/kg, male Yucatan pigs, mean, read-out: AUC0-inf): 39.6 µM·h | C0 ([1]; minipig, plasma, single intravenous dose 19 nmol/kg, male Yucatan pigs, mean, read-out: C0): 534 nM | AUC0-inf [1, 8]: 41.9 µM·h and 37.2 µM·h | C0 [1, 8]: 522 nM and 545 nM | CL [1, 8]: 0.0085 mL/min/kg | T1/2 [1, 8]: 86.8 h | AUC0-inf [2, 9]: 1.05 µM·h and 0.972 µM·h and 1.11 µM·h | CL/F [2, 9]: 0.175 mL/min/kg and 0.152 mL/min/kg | Cmax [2, 9]: 20.8 nM and 21.9 nM and 26.8 nM | T1/2 [2, 9]: 18.6 h and 31.5 h | Tmax [2, 9]: 6 h | AUC0-inf [2, 10]: 2.64 µM·h and 2.91 µM·h and 2.96 µM·h | CL/F [2, 10]: 0.173 mL/min/kg and 0.17 mL/min/kg | Cmax [2, 10]: 55.0 nM and 68.0 nM and 59.1 nM | T1/2 [2, 10]: 19.6 h and 20.8 h | Tmax [2, 10]: 6 h | AUC0-inf [2, 11]: 12.5 µM·h and 14 µM·h and 13.4 µM·h | CL/F [2, 11]: 0.119 mL/min/kg and 0.124 mL/min/kg | Cmax [2, 11]: 239 nM and 316 nM and 328 nM | T1/2 [2, 11]: 17.4 h and 15.7 h | AUC0-inf [2, 12]: 41.3 µM·h and 46.9 µM·h and 61.8 µM·h | C0 [2, 12]: 1610 nM and 3540 nM and 3610 nM | CL [2, 12]: 0.0673 mL/min/kg and 0.0512 mL/min/kg | T1/2 [2, 12]: 16.9 h and 18.2 h | clearance [2, 13]: 0.065 mL/min/kg | half-life [2, 13]: 17.5 h | clearance [2, 14]: 0.0765 mL/min/kg | half-life [2, 14]: 17.4 h | half-life ([2]; male, Sprague Dawley, rat, plasma, sc, 10 nmol/kg, dose response, single subcutaneous dose 10 nmol/kg, individual animal): 19.9 h | CL/F ([2]; male, Sprague Dawley, rat, plasma, sc, 10 nmol/kg, dose response, single subcutaneous dose 10 nmol/kg, individual animal, read-out: CL/F (converted)): 0.162 mL/min/kg | half-life ([2]; male, Sprague Dawley, rat, plasma, sc, 10 nmol/kg, dose response, single subcutaneous dose 10 nmol/kg, mean): 23.3 h | CL/F ([2]; male, Sprague Dawley, rat, plasma, sc, 10 nmol/kg, dose response, single subcutaneous dose 10 nmol/kg, mean, read-out: CL/F (converted)): 0.163 mL/min/kg | Tmax ([2]; male, Sprague Dawley, rat, plasma, sc, 10 nmol/kg, dose response, single subcutaneous dose 10 nmol/kg, mean, read-out: Tmax): 18 h | half-life ([2]; male, Sprague Dawley, rat, plasma, sc, 30 nmol/kg, dose response, single subcutaneous dose 30 nmol/kg, individual animal): 19.2 h | CL/F ([2]; male, Sprague Dawley, rat, plasma, sc, 30 nmol/kg, dose response, single subcutaneous dose 30 nmol/kg, individual animal, read-out: CL/F (converted)): 0.19 mL/min/kg | half-life ([2]; male, Sprague Dawley, rat, plasma, sc, 30 nmol/kg, dose response, single subcutaneous dose 30 nmol/kg, mean): 19.9 h | CL/F ([2]; male, Sprague Dawley, rat, plasma, sc, 30 nmol/kg, dose response, single subcutaneous dose 30 nmol/kg, mean, read-out: CL/F (converted)): 0.178 mL/min/kg | Tmax ([2]; male, Sprague Dawley, rat, plasma, sc, 30 nmol/kg, dose response, single subcutaneous dose 30 nmol/kg, mean, read-out: Tmax): 18 h | half-life ([2]; male, Sprague Dawley, rat, plasma, sc, 100 nmol/kg, dose response, single subcutaneous dose 100 nmol/kg, individual animal): 16 h | CL/F ([2]; male, Sprague Dawley, rat, plasma, sc, 100 nmol/kg, dose response, single subcutaneous dose 100 nmol/kg, individual animal, read-out: CL/F (converted)): 0.133 mL/min/kg | Tmax ([2]; male, Sprague Dawley, rat, plasma, sc, 100 nmol/kg, dose response, single subcutaneous dose 100 nmol/kg, individual animal, read-out: Tmax): 24 h | half-life ([2]; male, Sprague Dawley, rat, plasma, sc, 100 nmol/kg, dose response, single subcutaneous dose 100 nmol/kg, mean): 16.4 h | CL/F ([2]; male, Sprague Dawley, rat, plasma, sc, 100 nmol/kg, dose response, single subcutaneous dose 100 nmol/kg, mean, read-out: CL/F (converted)): 0.126 mL/min/kg | Tmax ([2]; male, Sprague Dawley, rat, plasma, sc, 100 nmol/kg, dose response, single subcutaneous dose 100 nmol/kg, mean, read-out: Tmax): 24 h | half-life ([2]; male, Sprague Dawley, rat, plasma, sc, 190 nmol/kg, single subcutaneous dose 190 nmol/kg, individual animal): 14.8 h | CL/F ([2]; male, Sprague Dawley, rat, plasma, sc, 190 nmol/kg, single subcutaneous dose 190 nmol/kg, individual animal, read-out: CL/F (converted)): 0.136 mL/min/kg | Tmax ([2]; male, Sprague Dawley, rat, plasma, sc, 190 nmol/kg, single subcutaneous dose 190 nmol/kg, individual animal, read-out: Tmax): 24 h | half-life ([2]; male, Sprague Dawley, rat, plasma, sc, 190 nmol/kg, single subcutaneous dose 190 nmol/kg, mean): 14.4 h | CL/F ([2]; male, Sprague Dawley, rat, plasma, sc, 190 nmol/kg, single subcutaneous dose 190 nmol/kg, mean, read-out: CL/F (converted)): 0.137 mL/min/kg | Tmax ([2]; male, Sprague Dawley, rat, plasma, sc, 190 nmol/kg, single subcutaneous dose 190 nmol/kg, mean, read-out: Tmax): 24 h | AUC0-inf ([2]; rat, plasma, sc, dose response, single subcutaneous dose 10 nmol/kg, male Sprague Dawley rats, mean, read-out: AUC0-inf): 1.04 µM·h | Cmax ([2]; rat, plasma, sc, dose response, single subcutaneous dose 10 nmol/kg, male Sprague Dawley rats, mean, read-out: Cmax): 23.2 nM | AUC0-inf ([2]; rat, plasma, sc, dose response, single subcutaneous dose 30 nmol/kg, male Sprague Dawley rats, mean, read-out: AUC0-inf): 2.84 µM·h | Cmax ([2]; rat, plasma, sc, dose response, single subcutaneous dose 30 nmol/kg, male Sprague Dawley rats, mean, read-out: Cmax): 60.7 nM | AUC0-inf ([2]; rat, plasma, sc, dose response, single subcutaneous dose 100 nmol/kg, male Sprague Dawley rats, mean, read-out: AUC0-inf): 13.3 µM·h | Cmax ([2]; rat, plasma, sc, dose response, single subcutaneous dose 100 nmol/kg, male Sprague Dawley rats, mean, read-out: Cmax): 294 nM | AUC0-inf ([2]; rat, plasma, sc, single subcutaneous dose 190 nmol/kg, male Sprague Dawley rats, mean, read-out: AUC0-inf): 23.2 µM·h | Cmax ([2]; rat, plasma, sc, single subcutaneous dose 190 nmol/kg, male Sprague Dawley rats, mean, read-out: Cmax): 508 nM | AUC0-inf ([2]; rat, plasma, male Sprague Dawley rats, single intravenous dose 190 nmol/kg, Mean, read-out: AUC0-inf): 50 µM·h | C0 ([2]; rat, plasma, male Sprague Dawley rats, single intravenous dose 190 nmol/kg, Mean, read-out: C0): 2920 nM | AUC0-inf [2, 15]: 23.4 µM·h and 21.6 µM·h and 24.7 µM·h | CL/F [2, 15]: 0.147 mL/min/kg and 0.128 mL/min/kg | Cmax [2, 15]: 466 nM and 475 nM and 582 nM | T1/2 [2, 15]: 13.9 h and 14.5 h
